Values of other authors, collected in patent US6368586B1, “Methods and compositions for enhancing the bioadhesive properties of polymers” (Brown University Research Foundation, priority 1996, dated 2002).
Read-outs that look alike come from different tables or passages of the source.

Acid Ionization Constants (pKa at 25° C.) for Aqua Ions	Acid Ionization Constants (pKa at 25° C.) for Aqua Ions (listed as Fe^3+)	Compound	Acid Ionization Constants (pKa at 25° C.) for Aqua Ions (listed as Ni^3+)
8.3	2.2	[Fe+2] [Fe^2+]	
11.4		[Mg+2] [Mg^2+]	
8.0		[Cu+2] [Cu^2+]	
12.6		[Ca+2] [Ca^2+]	
4.9		[Al+3] [Al^3+]	

Compound	Acid Ionization Constants (pKa at 25° C.) for Aqua Ions	Acid Ionization Constants (pKa at 25° C.) for Aqua Ions (listed as Fe^3+)	Acid Ionization Constants (pKa at 25° C.) for Aqua Ions (listed as Ni^3+)
[Ba+2] [Ba^2+]	13.2		
[Ni+2] [Ni^2+]	10.6		9.7
